From patent US12539292B2, “BRM targeting compounds and associated methods of use” (Arvinas Operations, Inc., priority 2018, dated 2026)
Read-outs that look alike come from different tables or passages of the source.

Target: T1, BRM (Homo sapiens, UniProt P51531)
T1 construct: In-Cell Western Screen of BRM Degradation in SW1573 Cells; endogenous in cells; host or cells: SW1573
Test: In-cell Western screen of BRM degradation in SW1573 cells (Dmax and DC50)
Assay type: cell-based
Procedure, shortened: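 Overnight compound treatment (18-20 h, final DMSO 0.1%) of SW1573 cells in DMEM with 10% FBS precedes fixation and in-cell Western staining with 800/680 nm dye-labelled secondaries. Plate images give DC50 and maximal degradation.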

[1] = BRM degradation, SW1573 cells, read-out: DC50
[2] = BRM degradation, SW1573 cells, Table 2D, read-out: *DC50
[3] = BRM degradation, SW1573 cells, when tested at the top concentration of between 0.3 and 10 μM, read-out: Dmax (%) (% degraded)
[4] = BRM degradation, SW1573 cells, read-out: Dmax (% degraded)
[5] = BRM degradation, SW1573 cells, Table 2D, read-out: **Dmax (%) (% degraded)

T1 sequence (P51531 whole entry): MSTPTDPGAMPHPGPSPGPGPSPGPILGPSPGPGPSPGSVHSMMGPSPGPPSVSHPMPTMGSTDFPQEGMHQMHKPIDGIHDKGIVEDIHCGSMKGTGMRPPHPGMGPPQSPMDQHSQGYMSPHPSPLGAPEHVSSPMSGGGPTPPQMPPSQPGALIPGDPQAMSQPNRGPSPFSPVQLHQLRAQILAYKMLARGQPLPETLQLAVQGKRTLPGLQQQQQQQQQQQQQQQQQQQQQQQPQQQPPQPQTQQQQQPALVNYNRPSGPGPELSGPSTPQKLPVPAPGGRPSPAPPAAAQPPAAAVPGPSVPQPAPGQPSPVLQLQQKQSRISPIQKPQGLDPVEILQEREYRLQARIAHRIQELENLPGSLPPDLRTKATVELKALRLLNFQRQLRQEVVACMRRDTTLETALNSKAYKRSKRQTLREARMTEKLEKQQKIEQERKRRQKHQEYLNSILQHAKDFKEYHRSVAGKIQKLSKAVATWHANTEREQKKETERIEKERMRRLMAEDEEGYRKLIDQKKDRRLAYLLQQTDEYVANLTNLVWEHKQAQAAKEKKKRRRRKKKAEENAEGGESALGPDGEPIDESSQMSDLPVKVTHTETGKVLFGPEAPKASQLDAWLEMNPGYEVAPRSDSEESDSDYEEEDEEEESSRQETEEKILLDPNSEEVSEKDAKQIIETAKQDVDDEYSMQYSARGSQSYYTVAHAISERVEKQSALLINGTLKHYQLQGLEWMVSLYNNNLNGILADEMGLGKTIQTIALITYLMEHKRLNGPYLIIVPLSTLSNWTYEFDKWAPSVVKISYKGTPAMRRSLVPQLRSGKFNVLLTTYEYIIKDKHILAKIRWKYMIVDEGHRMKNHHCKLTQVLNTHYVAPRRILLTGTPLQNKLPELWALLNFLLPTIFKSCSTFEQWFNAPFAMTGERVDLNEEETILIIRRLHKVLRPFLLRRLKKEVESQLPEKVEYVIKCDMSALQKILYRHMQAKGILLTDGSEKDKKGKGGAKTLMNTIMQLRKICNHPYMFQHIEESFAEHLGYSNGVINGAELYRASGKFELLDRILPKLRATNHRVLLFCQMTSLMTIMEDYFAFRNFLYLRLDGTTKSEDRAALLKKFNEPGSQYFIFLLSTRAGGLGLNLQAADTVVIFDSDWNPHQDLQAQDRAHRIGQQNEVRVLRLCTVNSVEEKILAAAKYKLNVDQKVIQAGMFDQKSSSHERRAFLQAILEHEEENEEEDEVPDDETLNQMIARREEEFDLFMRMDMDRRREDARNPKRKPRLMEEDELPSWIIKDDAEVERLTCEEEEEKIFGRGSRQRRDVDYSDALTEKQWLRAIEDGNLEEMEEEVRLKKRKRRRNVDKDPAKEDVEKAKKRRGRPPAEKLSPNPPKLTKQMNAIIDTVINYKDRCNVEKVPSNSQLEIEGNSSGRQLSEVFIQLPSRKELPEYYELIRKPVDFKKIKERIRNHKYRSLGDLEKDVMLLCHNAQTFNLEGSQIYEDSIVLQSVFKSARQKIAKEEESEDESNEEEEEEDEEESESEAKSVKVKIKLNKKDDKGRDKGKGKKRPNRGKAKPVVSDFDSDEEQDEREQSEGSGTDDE

Q: With `Cc1ncsc1-c1ccc([C@@H](NC(=O)[C@@H]2C[C@@H](O)CN2C(=O)[C@H](c2cc(OCCN3CCN(CCOc4cc(N5C6CCC5CN(c5cc(-c7ccccc7O)nnc5N)C6)ccn4)CC3)no2)C(C)C)C(=O)N(C)c2ccccc2)cc1` [compound 258, (2S,4R)-1-((2S)-2-(3-(2-(4-(2-((4-(3-(3-amino-6-(2-hydroxyphenyl)pyridazin-4-yl)-3,8-diazabicyclo[3.2.1]octan-8-yl)pyridin-2-yl)oxy)ethyl)piperazin-1-yl)ethoxy)isoxazol-5-yl)-3-methylbutanoyl)-4-hydroxy-N-((R)-2-(methyl(phenyl)amino)-1-(4-(4-methylthiazol-5-yl)phenyl)-2-oxoethyl)pyrrolidine-2-carboxamide] as the molecule, how does the DC50 [1] read?
A: > 30 nM

Q: `Cc1ncsc1-c1ccc([C@H](C)NC(=O)[C@@H]2C[C@@H](O)CN2C(=O)[C@H](c2cc(OCC[C@H]3CCN(C[C@H]4C[C@H](Oc5cc(N6C7CCC6CN(c6cc(-c8ccccc8O)nnc6N)C7)ccn5)C4)[C@@H](C)C3)no2)C(C)C)cc1` (racemic) [compound 547, (2S,4R)-1-((2S)-2-(3-(2-((2S,4S)-1-(((1r,3S)-3-((4-(3-(3-amino-6-(2-hydroxyphenyl)pyridazin-4-yl)-3,8-diazabicyclo[3.2.1]octan-8-yl)pyridin-2-yl)oxy)cyclobutyl)methyl)-2-methylpiperidin-4-yl)ethoxy)isoxazol-5-yl)-3-methylbutanoyl)-4-hydroxy-N-((S)-1-(4-(4-methylthiazol-5-yl)phenyl)ethyl)pyrrolidine-2-carboxamide] was tested. Which DC50 [2] did it give?
A: > 30 nM

Q: Which DC50 [1] does the source give for `Cc1ncsc1-c1ccc(CNC(=O)[C@@H]2C[C@@H](O)CN2C(=O)[C@H](c2cc(OCCN3CCN(CCOCCn4cc(-c5cc(-c6ccccc6O)nnc5N)cn4)CC3)no2)C(C)C)cc1` [compound 165, (2S,4R)-1-((S)-2-(3-(2-(4-(2-(2-(4-(3-amino-6-(2-hydroxyphenyl)pyridazin-4-yl)-1H-pyrazol-1-yl)ethoxy)ethyl)piperazin-1-yl)ethoxy)isoxazol-5-yl)-3-methylbutanoyl)-4-hydroxy-N-(4-(4-methylthiazol-5-yl)benzyl)pyrrolidine-2-carboxamide] here?
A: > 30 nM

Q: And the Dmax (BRM degradation, SW1573 cells, tested at the top concentration of between 0.3 and 10 μM, read-out: Dmax (%) (% degraded))?
A: < 50%

Q: How did the DC50 [1] turn out when `Cc1ncsc1-c1ccc([C@H](C)NC(=O)[C@@H]2C[C@@H](O)CN2C(=O)[C@@H](c2cc(OCCN3C[C@@H]4C[C@H]3CN4CCOc3cc(N4C5CCC4CN(c4cc(-c6ccccc6O)nnc4N)C5)ccn3)no2)C(C)C)cc1` [compound 135, (2S,4R)-1-((2R)-2-(3-(2-((1S,4S)-5-(2-((4-(3-(3-amino-6-(2-hydroxyphenyl)pyridazin-4-yl)-3,8-diazabicyclo[3.2.1]octan-8-yl)pyridin-2-yl)oxy)ethyl)-2,5-diazabicyclo[2.2.1]heptan-2-yl)ethoxy)isoxazol-5-yl)-3-methylbutanoyl)-4-hydroxy-N-((S)-1-(4-(4-methylthiazol-5-yl)phenyl)ethyl)pyrrolidine-2-carboxamide] was run?
A: < 2.5 nM

Q: And the Dmax [3]?
A: > 75%

Q: How did the DC50 (target protein degradation, read-out: BRM DC50) turn out when `Cc1ncsc1-c1ccc([C@H](C)NC(=O)[C@@H]2C[C@@H](O)CN2C(=O)[C@H](c2cc(N3CCC(OC4CCN(C[C@H]5C[C@H](Oc6cc(N7C8CCC7CN(c7cc(-c9ccccc9O)nnc7N)C8)ccn6)C5)CC4)CC3)no2)C(C)C)cn1` [compound 475, (2S,4R)-1-((2S)-2-(3-(4-((1-(((1r,3r)-3-((4-(3-(3-amino-6-(2-hydroxyphenyl)pyridazin-4-yl)-3,8-diazabicyclo[3.2.1]octan-8-yl)pyridin-2-yl)oxy)cyclobutyl)methyl)piperidin-4-yl)oxy)piperidin-1-yl)isoxazol-5-yl)-3-methylbutanoyl)-4-hydroxy-N-((S)-1-(6-(4-methylthiazol-5-yl)pyridin-3-yl)ethyl)pyrrolidine-2-carboxamide] was run?
A: > 30 nM

Q: How did the DC50 [1] turn out when `Cc1ncsc1-c1ccc([C@@H](COCC2CCOCC2)NC(=O)[C@@H]2C[C@@H](O)CN2C(=O)[C@H](c2cc(OCCN3CCN(CCOc4cc(N5C6CCC5CN(c5cc(-c7ccccc7O)nnc5N)C6)ccn4)CC3)no2)C(C)C)cc1` [compound 272, (2S,4R)-1-((2S)-2-(3-(2-(4-(2-((4-(3-(3-amino-6-(2-hydroxyphenyl)pyridazin-4-yl)-3,8-diazabicyclo[3.2.1]octan-8-yl)pyridin-2-yl)oxy)ethyl)piperazin-1-yl)ethoxy)isoxazol-5-yl)-3-methylbutanoyl)-4-hydroxy-N-((S)-1-(4-(4-methylthiazol-5-yl)phenyl)-2-((tetrahydro-2H-pyran-4-yl)methoxy)ethyl)pyrrolidine-2-carboxamide] was run?
A: > 30 nM

Q: How did the DC50 (degradation of BRM, read-out: BRM DC50) turn out when `CC(C)[C@@H](C(=O)N1C[C@H](O)C[C@H]1C(=O)N[C@@H](C)c1ccc(C2CC2(F)F)cc1)c1cc(OCCN2CCC(O[C@H]3C[C@H](Oc4cc(N5C6CCC5CN(c5cc(-c7ccccc7O)nnc5N)C6)ccn4)C3)CC2)no1` (stereo partly drawn) [compound 439, (2S,4R)-1-((2R)-2-(3-(2-(4-((1r,3R)-3-((4-(3-(3-amino-6-(2-hydroxyphenyl)pyridazin-4-yl)-3,8-diazabicyclo[3.2.1]octan-8-yl)pyridin-2-yl)oxy)cyclobutoxy)piperidin-1-yl)ethoxy)isoxazol-5-yl)-3-methylbutanoyl)-N-((1S)-1-(4-(2,2-difluorocyclopropyl)phenyl)ethyl)-4-hydroxypyrrolidine-2-carboxamide] was run?
A: > 30 nM

Q: For `Cc1ncsc1-c1ccc([C@H](C)NC(=O)[C@@H]2C[C@@H](O)CN2C(=O)[C@@H](c2cc(N3CCC(CN4CCC(O[C@H]5C[C@H](C#Cc6cc(N7C8CCC7CN(c7cc(-c9ccccc9O)nnc7N)C8)ccn6)C5)CC4)CC3)no2)C(C)C)cc1` [compound 699, (2S,4R)-1-((2R)-2-(3-(4-((4-((1r,3r)-3-((4-(3-(3-amino-6-(2-hydroxyphenyl)pyridazin-4-yl)-3,8-diazabicyclo[3.2.1]octan-8-yl)pyridin-2-yl)ethynyl)cyclobutoxy)piperidin-1-yl)methyl)piperidin-1-yl)isoxazol-5-yl)-3-methylbutanoyl)-4-hydroxy-N-((S)-1-(4-(4-methylthiazol-5-yl)phenyl)ethyl)pyrrolidine-2-carboxamide], which DC50 [1] is on record?
A: < 2.5 nM

Q: And the Dmax [4]?
A: > 75%

Q: `Cc1ncsc1-c1ccc([C@H](C)NC(=O)[C@@H]2C[C@@H](O)CN2C(=O)[C@@H](c2cc(N3CCN(CCOc4cc(N5C6CCC5CN(c5cc(-c7ccccc7O)nnc5N)C6)ccn4)CC3)no2)C(C)C)cc1` [compound 592, (2S,4R)-1-((2R)-2-(3-(4-(2-((4-(3-(3-amino-6-(2-hydroxyphenyl)pyridazin-4-yl)-3,8-diazabicyclo[3.2.1]octan-8-yl)pyridin-2-yl)oxy)ethyl)piperazin-1-yl)isoxazol-5-yl)-3-methylbutanoyl)-4-hydroxy-N-((S)-1-(4-(4-methylthiazol-5-yl)phenyl)ethyl) pyrrolidine-2-carboxamide] was tested. Which Dmax [5] did it give?
A: > 75%

Q: What about the DC50 [2] of the same molecule?
A: < 2.5 nM

Q: What does the source list for `Cc1ncsc1-c1ccc([C@H](C)NC(=O)[C@@H]2C[C@@H](O)CN2C(=O)[C@H](c2cc(OCC[C@@H]3CCN(C[C@H]4C[C@H](Oc5cc(N6C7CCC6CN(c6cc(-c8ccccc8O)nnc6N)C7)ccn5)C4)[C@@H](C)C3)no2)C(C)C)cc1` (racemic) [compound 581, (2S,4R)-1-((2S)-2-(3-(2-((2S,4R)-1-(((1r,3S)-3-((4-(3-(3-amino-6-(2-hydroxyphenyl)pyridazin-4-yl)-3,8-diazabicyclo[3.2.1]octan-8-yl)pyridin-2-yl)oxy)cyclobutyl)methyl)-2-methylpiperidin-4-yl)ethoxy)isoxazol-5-yl)-3-methylbutanoyl)-4-hydroxy-N-((S)-1-(4-(4-methylthiazol-5-yl)phenyl)ethyl)pyrrolidine-2-carboxamide]?
A: Dmax [5]: > 75%; DC50 [2]: < 2.5 nM

Q: Which DC50 (BRM degradation, read-out: BRM DC50) does the source give for `Cc1ncsc1-c1ccc([C@H](C)NC(=O)[C@@H]2C[C@@H](O)CN2C(=O)[C@@H](c2cc(OCCN3CCC(O[C@H]4C[C@H](Oc5cc(N6C7CCC6CN(c6ccnc8nc(-c9ccccc9O)cn68)C7)ccn5)C4)CC3)no2)C(C)C)cc1` [compound 515] here?
A: > 30 nM

Q: How did the DC50 [1] turn out when `Cc1ncsc1-c1ccc([C@H](C)NC(=O)[C@@H]2C[C@@H](O)CN2C(=O)[C@@H](c2cc(N3CCC(CN4CCC(O[C@H]5C[C@H](Oc6cc(N7C8CCC7CN(c7cc(-c9ccccc9O)nnc7N)C8)ccn6)C5)CC4)CC3)no2)C(C)C)cn1` [compound 675, (2S,4R)-1-((2R)-2-(3-(4-((4-((1r,3r)-3-((4-(3-(3-amino-6-(2-hydroxyphenyl)pyridazin-4-yl)-3,8-diazabicyclo[3.2.1]octan-8-yl)pyridin-2-yl)oxy)cyclobutoxy)piperidin-1-yl)methyl)piperidin-1-yl)isoxazol-5-yl)-3-methylbutanoyl)-4-hydroxy-N-((S)-1-(6-(4-methylthiazol-5-yl)pyridin-3-yl)ethyl)pyrrolidine-2-carboxamide] was run?
A: < 2.5 nM

Q: What about the Dmax [4] of the same molecule?
A: > 75%

Q: What does the source list for `Cc1ncsc1-c1ccc([C@H](C)NC(=O)[C@@H]2C[C@@H](O)CN2C(=O)[C@@H](c2cc(OCCCc3ccc(C(C)n4cc(-c5cc(-c6ccccc6O)nnc5N)cn4)cc3)no2)C(C)C)cc1` (stereo partly drawn) [compound 60, (2S,4R)-1-((2R)-2-(3-(3-(4-(1-(4-(3-amino-6-(2-hydroxyphenyl)pyridazin-4-yl)-1H-pyrazol-1-yl)ethyl)phenyl)propoxy)isoxazol-5-yl)-3-methylbutanoyl)-4-hydroxy-N-((S)-1-(4-(4-methylthiazol-5-yl)phenyl)ethyl)pyrrolidine-2-carboxamide]?
A: DC50 [1]: < 2.5 nM; Dmax [3]: > 75%
